Values after ≈ are worked out from the molar mass of the structure shown.
Legend:
[1] = biological target: Phosphatidylinositol 4,5-bisphosphate 3-kinase catalytic subunit alpha isoform (Homo sapiens, UniProt P42336); assay: Inhibition of N-terminal ploy-His-tagged human PI3Kalpha expressed in baculovirus-infected sf9 cells using PI(4,5)P2 as substrate after 15 mins by HTRF assay
[2] = biological target: T1, Phosphatidylinositol 4,5-bisphosphate 3-kinase catalytic subunit beta isoform (Homo sapiens, UniProt P42338); assay: Inhibition of N-terminal ploy-His-tagged human PI3Kbeta expressed in baculovirus-infected sf21 cells using PI(4,5)P2 as substrate after 15 mins by HTRF assay
Cytochrome P450 3A4 = Cytochrome P450 3A4 (Homo sapiens, UniProt P08684); assay: Inhibition of recombinant human CYP3A4
[3] = Metabolic stability in mouse liver microsomes at 5 uM after 20 mins
[4] = Metabolic stability in human liver microsomes at 5 uM after 20 mins
[5] = biological target: T1, Phosphatidylinositol 4,5-bisphosphate 3-kinase catalytic subunit beta isoform; assay: Inhibition of PI3Kbeta-mediated Akt phosphorylation at S473 in PTEN-deficient human PC3 cells after 0.5 to 2 hrs by Immunoblotting assay; type: cell-based, PC-3
[6] = biological target: T2, Phosphatidylinositol 4,5-bisphosphate 3-kinase catalytic subunit delta isoform (Homo sapiens, UniProt O00329); assay: Inhibition of N-terminal ploy-His-tagged human PI3Kdelta expressed in baculovirus-infected sf9 cells using PI(4,5)P2 as substrate after 15 mins by HTRF assay
T2 sequence (O00329 whole entry): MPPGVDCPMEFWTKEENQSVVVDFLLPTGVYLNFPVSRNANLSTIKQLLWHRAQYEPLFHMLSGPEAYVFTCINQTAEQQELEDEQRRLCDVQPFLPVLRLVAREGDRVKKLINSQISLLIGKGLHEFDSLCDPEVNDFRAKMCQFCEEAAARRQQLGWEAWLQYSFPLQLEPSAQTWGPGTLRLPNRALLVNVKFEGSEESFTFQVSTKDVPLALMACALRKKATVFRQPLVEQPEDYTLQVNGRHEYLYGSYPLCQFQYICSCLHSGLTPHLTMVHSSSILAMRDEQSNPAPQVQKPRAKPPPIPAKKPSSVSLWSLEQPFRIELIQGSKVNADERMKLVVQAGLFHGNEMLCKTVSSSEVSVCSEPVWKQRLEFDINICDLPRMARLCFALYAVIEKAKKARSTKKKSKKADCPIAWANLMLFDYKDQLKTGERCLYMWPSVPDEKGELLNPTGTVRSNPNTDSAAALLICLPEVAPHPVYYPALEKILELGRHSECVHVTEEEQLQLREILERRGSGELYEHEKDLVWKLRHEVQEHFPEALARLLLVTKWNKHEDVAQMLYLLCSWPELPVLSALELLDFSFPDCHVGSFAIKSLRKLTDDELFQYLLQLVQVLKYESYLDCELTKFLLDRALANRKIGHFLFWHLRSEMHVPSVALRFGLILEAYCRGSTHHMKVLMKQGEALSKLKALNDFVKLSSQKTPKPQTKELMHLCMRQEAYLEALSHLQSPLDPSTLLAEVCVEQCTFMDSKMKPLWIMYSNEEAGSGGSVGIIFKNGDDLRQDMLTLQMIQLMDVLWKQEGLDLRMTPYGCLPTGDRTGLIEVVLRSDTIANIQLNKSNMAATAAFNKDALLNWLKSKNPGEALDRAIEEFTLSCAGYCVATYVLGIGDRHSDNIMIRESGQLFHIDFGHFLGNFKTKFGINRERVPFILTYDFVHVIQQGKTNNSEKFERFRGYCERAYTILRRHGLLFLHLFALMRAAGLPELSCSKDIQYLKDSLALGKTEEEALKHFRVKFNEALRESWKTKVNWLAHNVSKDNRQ

[7] = Solubility of the compound in phosphate buffer at pH 7.4 by HPLC analysis; conditions: phosphate buffer
[8] = Apparent permeability in human Caco2 cells at 5 uM after 20 mins; conditions: Caco-2
[9] = biological target: Phosphatidylinositol 4,5-bisphosphate 3-kinase catalytic subunit gamma isoform (Homo sapiens, UniProt P48736); assay: Inhibition of C-terminal ploy-His-tagged human PI3Kgamma expressed in baculovirus-infected sf9 cells using PI(4,5)P2 as substrate after 15 mins by HTRF assay
[10] = Dissociation constant, pKa of the compound; type: physicochemical
[11] = Lipophilicity, log D of the compound; type: physicochemical; conditions: octanol/water
PC-3 = assay: Antitumor activity against po dosed PTEN-deficient human PC3 cells xenografted in nude mouse assessed as tumor growth inhibition administered as qd measured for 52 days; type: functional

T1 sequence (P42338 whole entry, canonical isoform): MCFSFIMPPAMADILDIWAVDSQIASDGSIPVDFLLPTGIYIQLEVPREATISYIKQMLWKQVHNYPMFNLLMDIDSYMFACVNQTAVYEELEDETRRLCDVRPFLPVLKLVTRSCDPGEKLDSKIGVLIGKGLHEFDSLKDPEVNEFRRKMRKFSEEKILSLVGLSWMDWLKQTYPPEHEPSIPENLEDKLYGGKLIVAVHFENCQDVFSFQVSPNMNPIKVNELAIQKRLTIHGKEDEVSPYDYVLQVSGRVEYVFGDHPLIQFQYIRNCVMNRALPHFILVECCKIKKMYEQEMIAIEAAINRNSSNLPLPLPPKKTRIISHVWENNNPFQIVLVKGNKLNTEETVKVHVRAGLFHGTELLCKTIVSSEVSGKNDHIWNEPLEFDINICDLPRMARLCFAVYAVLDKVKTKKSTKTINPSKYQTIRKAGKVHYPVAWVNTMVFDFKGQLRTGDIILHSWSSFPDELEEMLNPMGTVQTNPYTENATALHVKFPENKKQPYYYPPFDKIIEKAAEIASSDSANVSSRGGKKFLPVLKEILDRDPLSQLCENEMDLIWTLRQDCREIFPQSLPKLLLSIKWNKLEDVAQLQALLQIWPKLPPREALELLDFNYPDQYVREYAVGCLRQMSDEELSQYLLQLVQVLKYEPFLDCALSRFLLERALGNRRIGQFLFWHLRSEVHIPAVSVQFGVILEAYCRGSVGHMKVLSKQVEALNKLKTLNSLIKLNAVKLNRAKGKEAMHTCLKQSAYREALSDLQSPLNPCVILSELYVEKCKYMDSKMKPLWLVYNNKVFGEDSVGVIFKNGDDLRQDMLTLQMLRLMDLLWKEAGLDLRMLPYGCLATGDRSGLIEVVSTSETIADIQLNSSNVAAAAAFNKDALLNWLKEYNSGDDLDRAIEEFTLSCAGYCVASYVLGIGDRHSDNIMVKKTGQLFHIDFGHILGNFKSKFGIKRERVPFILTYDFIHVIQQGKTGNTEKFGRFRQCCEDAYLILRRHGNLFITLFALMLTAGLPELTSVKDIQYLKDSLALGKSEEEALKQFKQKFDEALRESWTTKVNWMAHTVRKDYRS
Chain of Phosphatidylinositol 4,5-bisphosphate 3-kinase catalytic subunit alpha isoform (P42336 whole entry, canonical isoform): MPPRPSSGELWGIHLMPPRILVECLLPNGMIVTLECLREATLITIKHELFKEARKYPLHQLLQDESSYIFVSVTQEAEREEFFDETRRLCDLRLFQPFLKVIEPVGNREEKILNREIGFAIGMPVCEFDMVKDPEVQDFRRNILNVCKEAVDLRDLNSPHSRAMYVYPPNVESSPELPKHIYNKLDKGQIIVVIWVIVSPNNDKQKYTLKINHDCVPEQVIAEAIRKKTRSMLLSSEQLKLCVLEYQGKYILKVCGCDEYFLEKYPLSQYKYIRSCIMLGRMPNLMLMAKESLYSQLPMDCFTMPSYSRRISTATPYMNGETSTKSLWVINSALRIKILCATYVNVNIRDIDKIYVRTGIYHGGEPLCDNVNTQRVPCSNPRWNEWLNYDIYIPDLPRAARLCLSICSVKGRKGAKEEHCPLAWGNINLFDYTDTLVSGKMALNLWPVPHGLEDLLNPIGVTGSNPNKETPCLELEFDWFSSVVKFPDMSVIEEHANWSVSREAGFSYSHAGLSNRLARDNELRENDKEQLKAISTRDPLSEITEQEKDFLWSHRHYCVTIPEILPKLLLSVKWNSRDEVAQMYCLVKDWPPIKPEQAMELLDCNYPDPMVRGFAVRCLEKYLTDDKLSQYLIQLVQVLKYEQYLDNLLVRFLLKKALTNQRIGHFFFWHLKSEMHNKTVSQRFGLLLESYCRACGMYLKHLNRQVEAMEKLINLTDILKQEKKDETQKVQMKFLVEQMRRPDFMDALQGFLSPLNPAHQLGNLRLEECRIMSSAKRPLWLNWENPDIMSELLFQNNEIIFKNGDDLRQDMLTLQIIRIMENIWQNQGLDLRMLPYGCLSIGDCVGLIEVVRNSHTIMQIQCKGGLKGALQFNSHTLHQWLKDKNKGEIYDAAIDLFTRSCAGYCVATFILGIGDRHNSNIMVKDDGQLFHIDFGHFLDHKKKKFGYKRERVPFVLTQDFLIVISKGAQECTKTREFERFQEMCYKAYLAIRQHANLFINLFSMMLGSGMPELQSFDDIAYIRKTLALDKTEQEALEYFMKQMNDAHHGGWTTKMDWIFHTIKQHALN
Chain of Cytochrome P450 3A4 (P08684 whole entry): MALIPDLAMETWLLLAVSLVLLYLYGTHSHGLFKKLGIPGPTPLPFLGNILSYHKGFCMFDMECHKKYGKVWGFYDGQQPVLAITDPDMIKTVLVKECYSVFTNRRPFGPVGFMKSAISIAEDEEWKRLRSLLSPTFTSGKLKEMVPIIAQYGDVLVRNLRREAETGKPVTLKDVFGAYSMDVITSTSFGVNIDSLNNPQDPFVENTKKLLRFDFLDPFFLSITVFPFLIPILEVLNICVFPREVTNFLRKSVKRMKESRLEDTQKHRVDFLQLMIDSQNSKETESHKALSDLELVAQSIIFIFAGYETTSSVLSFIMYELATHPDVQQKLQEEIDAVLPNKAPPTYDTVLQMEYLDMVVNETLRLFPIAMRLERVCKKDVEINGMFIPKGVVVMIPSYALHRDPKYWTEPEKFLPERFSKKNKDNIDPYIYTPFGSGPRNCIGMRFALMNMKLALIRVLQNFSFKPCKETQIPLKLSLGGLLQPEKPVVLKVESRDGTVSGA
Chain of Phosphatidylinositol 4,5-bisphosphate 3-kinase catalytic subunit gamma isoform (P48736 whole entry, canonical isoform): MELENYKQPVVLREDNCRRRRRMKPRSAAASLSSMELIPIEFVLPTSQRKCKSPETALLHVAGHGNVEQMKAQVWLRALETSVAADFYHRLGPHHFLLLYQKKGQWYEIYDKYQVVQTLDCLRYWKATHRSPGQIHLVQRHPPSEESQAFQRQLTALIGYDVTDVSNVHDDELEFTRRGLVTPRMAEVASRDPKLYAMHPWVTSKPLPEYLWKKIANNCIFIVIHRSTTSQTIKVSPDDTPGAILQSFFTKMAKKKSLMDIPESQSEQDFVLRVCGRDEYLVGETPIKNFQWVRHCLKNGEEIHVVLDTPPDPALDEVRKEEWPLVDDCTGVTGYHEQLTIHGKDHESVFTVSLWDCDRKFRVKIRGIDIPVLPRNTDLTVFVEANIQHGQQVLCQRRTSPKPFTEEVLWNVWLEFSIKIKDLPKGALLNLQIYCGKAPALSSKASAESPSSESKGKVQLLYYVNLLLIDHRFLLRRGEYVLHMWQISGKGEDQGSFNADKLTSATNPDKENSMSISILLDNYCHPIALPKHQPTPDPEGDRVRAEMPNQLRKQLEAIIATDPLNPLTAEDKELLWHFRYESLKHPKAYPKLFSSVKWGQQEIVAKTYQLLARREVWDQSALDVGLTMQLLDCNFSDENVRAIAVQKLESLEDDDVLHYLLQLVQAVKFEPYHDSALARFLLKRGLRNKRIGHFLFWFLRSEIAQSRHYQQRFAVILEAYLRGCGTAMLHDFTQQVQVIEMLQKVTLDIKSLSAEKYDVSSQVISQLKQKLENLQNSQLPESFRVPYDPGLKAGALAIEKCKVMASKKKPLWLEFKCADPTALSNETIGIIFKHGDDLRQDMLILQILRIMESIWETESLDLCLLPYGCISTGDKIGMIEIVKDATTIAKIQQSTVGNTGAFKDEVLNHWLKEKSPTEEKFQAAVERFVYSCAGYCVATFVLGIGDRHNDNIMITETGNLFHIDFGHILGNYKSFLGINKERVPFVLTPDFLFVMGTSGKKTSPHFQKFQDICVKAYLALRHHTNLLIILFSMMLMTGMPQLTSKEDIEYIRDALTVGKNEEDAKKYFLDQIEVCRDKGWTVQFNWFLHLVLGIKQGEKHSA

Row | SMILES | IC50 [1] [nM] | IC50 [2] [nM] | IC50 (Cytochrome P450 3A4) [nM] | remaining at 20 min, 5 µM ([3]; liver microsomes) [%] | remaining at 20 min, 5 µM ([4]; liver microsomes) [%] | IC50 [5] [nM] | IC50 [6] [nM] | solubility [7] [µM] | Papp at 20 min, 5 µM [8] [×10⁻⁶ cm/s] | IC50 [9] [nM] | pKa [10] | logD [11] | T/C (PC-3) [%] | remaining at 20 min, 5 µM ([3]; microsomes) [%] | remaining at 20 min, 5 µM ([4]; microsomes) [%]
1 | O=C(Cc1nc(N2CCOCC2)cc(=O)[nH]1)N1CCc2c(OC(F)(F)F)cccc21 | 1000 | 33 | 40000 | 44 | 48 | 54 | 34 | 12 (≈ 5.09 µg/mL) | 4.1 | 7420 |  |  |  |  | 
2 | C[C@@H]1Cc2ccccc2N1C(=O)Cc1nc(N2CCOCC2)cc(=O)[nH]1 |  | 6 | 40000 | 52 | 43 | 12 | 6 | 2500 (≈ 885 µg/mL) | 5.1 | 3320 |  |  |  |  | 
3 | CC1CN(C(=O)Cc2nc(N3CCOCC3)cc(=O)[nH]2)c2ccccc21 (racemic) | 2260 | 22 | 40000 | 40 | 47 | 13 | 87 | 3 (≈ 1.06 µg/mL) | 7.5 | 10000 |  |  |  |  | 
4 | C[C@H]1c2cccc(O)c2C(=O)C2=C(O)[C@]3(O)C(=O)C(C(N)=O)=C(O)[C@@H](N(C)C)[C@@H]3[C@@H](O)[C@@H]21.O [DOXYCYCLINE] |  |  |  |  |  |  |  |  |  |  |  |  | 49 |  | 
5 | CN1CCN(c2cccc3c2CCN3C(=O)Cc2nc(N3CCOCC3)cc(=O)[nH]2)CC1 | 960 | 407 |  |  |  | 167 | 22 | 1500 (≈ 656 µg/mL) |  | 10000 |  |  |  |  | 
6 | O=C(Cc1nc(N2CCOCC2)cc(=O)[nH]1)N1CCc2c(F)cccc21 | 2450 |  |  |  |  |  | 122 |  |  | 6220 |  |  |  | 9 | 19
7 | O=C(Cc1nc(N2CCOCC2)cc(=O)[nH]1)N1CCc2cc(Cl)ccc21 | 2020 | 79 | 40000 | 36 | 34 | 124 | 4130 | 3 (≈ 1.12 µg/mL) | 1.4 | 10000 |  |  |  |  | 
8 | CC1(C)Cc2ccccc2N1C(=O)Cc1nc(N2CCOCC2)cc(=O)[nH]1 |  | 102 |  |  |  | 78 | 580 | 46 (≈ 16.9 µg/mL) |  |  |  |  |  |  | 
9 | O=C(Cc1nc(N2CCOCC2)cc(=O)[nH]1)N1CCc2c(-c3ccccn3)cccc21 | 2380 | 98 | 11000 | 40 | 36 | 66 | 106 | 110 (≈ 45.9 µg/mL) | 4.2 | 8970 |  |  |  |  | 
10 | COc1cccc2c1CCN2C(=O)Cc1nc(N2CCOCC2)cc(=O)[nH]1 | 2420 | 41 | 40000 | 70 | 0 | 60 | 648 | 5 (≈ 1.85 µg/mL) | 0.6 |  |  |  |  |  | 
11 | Cn1c(Cc2nc(N3CCOCC3)cc(=O)[nH]2)nc2ccccc21 |  |  |  |  |  |  |  |  |  | 10000 |  |  |  |  | 
12 | CC1Cc2ccccc2N1C(=O)Cc1nc(N2CCOCC2)cc(=O)[nH]1 (racemic) |  | 4 |  |  |  | 6 | 36 | 2750 (≈ 976 µg/mL) |  | 9150 |  |  |  |  | 
13 | Cn1c(CC(=O)N2CCc3ccccc32)nc(N2CCOCC2)cc1=O | 4320 | 48 |  | 37 | 14 | 20 | 278 | 36 (≈ 12.8 µg/mL) | 8.3 |  |  |  |  |  | 
14 | CN1CCN(Cc2cccc3c2CCN3C(=O)Cc2nc(N3CCOCC3)cc(=O)[nH]2)CC1 | 660 | 332 |  |  |  | 272 | 2 | 4420 (≈ 2000 µg/mL) |  |  |  |  |  |  | 

Now from value to molecule, other results behind:

Row | IC50 [1] [nM] | IC50 [2] [nM] | IC50 (Cytochrome P450 3A4) [nM] | remaining at 20 min, 5 µM ([3]; liver microsomes) [%] | remaining at 20 min, 5 µM ([4]; liver microsomes) [%] | IC50 [5] [nM] | IC50 [6] [nM] | solubility [7] [µM] | Papp at 20 min, 5 µM [8] [×10⁻⁶ cm/s] | IC50 [9] [nM] | pKa [10] | logD [11] | SMILES | T/C (PC-3) [%] | remaining at 20 min, 5 µM ([3]; microsomes) [%] | remaining at 20 min, 5 µM ([4]; microsomes) [%]
15 | 5420 | 17 | 40000 | 87 | 83 | 28 | 278 | 46 (≈ 16.9 µg/mL) | 4 |  |  |  | CC1(C)CN(C(=O)Cc2nc(N3CCOCC3)cc(=O)[nH]2)c2ccccc21 |  |  | 
16 | 86 | 1 | 40000 | 27 | 18 | 3 | 21 | 5 (≈ 1.87 µg/mL) | 8.8 | 1130 |  |  | O=C(Cc1nc(N2CCOCC2)cc(=O)[nH]1)N1CCc2c(Cl)cccc21 |  |  | 
17 | 1000 | 10 | 31000 | 44 | 43 | 94 | 22 | 69 (≈ 28.8 µg/mL) | 0.4 | 1000 | 4.5 | 1.99 | O=C(Cc1nc(N2CCOCC2)cc(=O)[nH]1)N1CCc2c(-c3ccncc3)cccc21 |  |  | 
18 | 426 | 4 | 40000 | 14 | 18 | 7 | 17 | 31 (≈ 11.1 µg/mL) | 3 | 1590 |  |  | O=C(Cc1nc(N2CCOCC2)cc(=O)[nH]1)N1CCc2cc(F)ccc21 |  |  | 
19 | 390 | 10 | 40000 | 13 | 24 | 9 | 98 | 12 (≈ 4.9 µg/mL) | 4.6 | 8400 |  |  | O=C(Cc1nc(N2CCOCC2)cc(=O)[nH]1)N1CCc2c1cccc2C(F)(F)F |  |  | 
20 | 460 | 4 | 40000 | 21 | 12 | 15 | 28 | 12 (≈ 4.08 µg/mL) | 5.9 | 10000 |  |  | O=C(Cc1nc(N2CCOCC2)cc(=O)[nH]1)N1CCc2ccccc21 |  |  | 
21 | 138 | 5 |  | 60 | 32 | 3 | 24 | 3 (≈ 1.06 µg/mL) | 7.4 | 1780 |  |  | Cc1cccc2c1CCN2C(=O)Cc1nc(N2CCOCC2)cc(=O)[nH]1 |  |  | 
22 | 361 | 17 | 40000 | 49 | 29 | 53 | 7 | 60 (≈ 25 µg/mL) | 0.8 | 2460 | 4.5 | 1.99 | O=C(Cc1nc(N2CCOCC2)cc(=O)[nH]1)N1CCc2c(-c3cccnc3)cccc21 |  |  | 
23 | 85 | 6 | 40000 | 22 | 24 | 1 | 55 | 2 (≈ 0.839 µg/mL) | 4.2 | 3980 |  |  | O=C(Cc1nc(N2CCOCC2)cc(=O)[nH]1)N1CCc2c(Br)cccc21 |  |  | 
24 | 217 | 8 | 40000 | 25 | 40 | 24 | 18 |  | 7.1 | 1530 |  |  | O=C(Cc1nc(N2CCOCC2)cc(=O)[nH]1)N1CCc2c(-c3ccccc3)cccc21 |  |  | 
